Source: patent publication US6632962B2, “Caspase inhibitors and uses thereof” (Vertex Pharmaceuticals Incorporated, priority 1999, dated 2003)
Structures can show the parent of a compound that is named as a salt.

Key:
[1] = target: recombinant, purified human caspase-8 (Homo sapiens, UniProt Q14790); assay: Caspase-8 assay (fluorogenic substrate cleavage, kinact); format: biochemical; conditions: second order rate constant of inactivation; 1.5 nM caspase-8, 10 μM AcDEVD-AMC, 37° C.
Experimental: The assay for caspase-8 activity was based on the cleavage of a fluorogenic substrate by recombinant, purified human caspase-8 essentially according to the method described by Garcia-Calvo et al (1998) J. Biol. Chem. 273:32608-32613.
(§1) Assay Buffer: 10 mM Tris-HCI (Sigma T-3038), 1 mM dithiothreitol (DTT) (Calbiochem 233153), 0.1% CHAPS (Sigma C-3023), pH 7.5. Purified recombinant human Caspase-8. Substrate (acetyl-Asp-Glu-Val-Asp-amino-4-methyl coumarin, ACDEVD-AMC) (Bachem, I-1660). Serial dilution of test compound in DMSO (Sigma D-2650).
(§2) 70 microliters (μl) assay buffer, 20 μl of substrate and 5 μl of the inhibitor solution were added to the wells of a 96-well microtiter assay plate giving a final concentration of 1.5 nM caspase-8 and 10 μM substrate. The plate was incubated at 50° C. for 15 minutes in a thermostatically controlled plate warmer (Wesbart, UK). The reaction was then started by the addition of enzyme directly to the wells. The reaction was monitored continuously for 20 minutes in a fluorimeter (SPECTRAmax Gemini, Molecular Devices) at 37° C. by following the release of AMC fluorophor at an excitation wavelength of 390 nm and an emission wavelength of 460 nm. For each well, the observed rate of enzyme inactivation at a particular inhibitor concentration, kobs, was computed by direct fits of the data to the equation derived by Thornberry et al., (1994, Biochemistry 33, […]) using a non-linear least squares analysis computer program (PRISM 2.0, Graph Pad Software). To obtain the second order rate constant, kinact, kobs values were plotted against their respective inhibitor concentrations and kinact values were subsequently calculated by computerized linear regression.

[2] = system: Jurkat E6.1 cells; assay: Anti-Fas induced apoptosis assay (DNA fragmentation); format: cell-based; conditions: Homo sapiens, anti-Fas antibody CH-11 10 ng/ml, 16-18 hrs, DNA fragmentation OD405
Excerpt: Cellular apoptosis may be induced by the binding of Fas ligand (FasL) to its receptor, CD95 (Fas). CD95 is one of a family of related receptors, known as death receptors, which can trigger apoptosis in cells via activation of the caspase enzyme cascade. The process is initiated by the binding of the adapter molecule FADD/MORT-1 to the cytoplasmic domain of the CD-95 receptor-ligand complex. Caspase-8 then binds FADD and becomes activated, initiating a cascade of events that involve the activation of downstream caspases and subsequent cellular apoptosis. Apoptosis can also be induced in cells expressing CD95 eg the Jurkat E6.1 T cell lymphoma cell line, using an antibody, rather than FasL, to crosslink the cell surface CD95. Anti-Fas-induced apoptosis is also triggered via the activation of caspase-8. This provides the basis of a cell-based assay to screen compounds for inhibition of the caspase-8-mediated apoptotic pathway.
Jurkat E6.1 cells are cultured in complete medium consisting of RPMI-1640 (Sigma No)+10% foetal calf serum (Gibco BRL No.10099-141)+2 mM L-glutamine (Sigma No. G-7513). The cells are harvested in log phase of growth. 100 ml Cells at 5-8×10^5 cells/ml are transferred to sterile 50 ml Falcon centrifuge tubes and centrifuged for 5 minutes at 100× g at room temperature. The supernatant is removed and the combined cell pellets resuspended in 25 ml of complete medium. The cells are counted and the density adjusted to 2×10^6 cells/ml with complete medium.
The test compound was dissolved in dimethyl sulfoxide (DMSO)(Sigma No. D-2650) to give a 100 mM stock solution. This was diluted to 400 μM in complete medium, then serially diluted in a 96-well plate prior to addition to the cell assay plate.
100-μl of the cell suspension ([…]) were added to each well of a sterile 96-well round-bottomed cluster plate (Costar No. 3790). 50 μl of compound solution at the appropriate dilution and 50 μl of anti-Fas antibody, clone CH-11 (Kamiya No.MC-060) at a final concentration of 10 ng/ml, were added to the wells. Control wells were set up minus antibody and minus compound but with a serial dilution of DMSO as vehicle control. The plates were incubated for 16-18 hrs at 37° C. in 5% CO2 and 95% humidity.
Apoptosis of the cells was measured by the quantitation of DNA fragmentation using a ‘Cell Death Detection Assay’ from Boehringer-Mannheim, No. 1544 675. After incubation for 16-18 hrs the assay plates were centrifuged at 100× g at room temperature for 5 minutes. 150 μl of the supernatant were removed and replaced by 150 μl of fresh complete medium. The cells were then harvested and 200 μl of the lysis buffer supplied in the assay kit were added to each well. The cells were triturated to ensure complete lysis and incubated for 30 minutes at 4° C. The plates were then centrifuged at 1900× g for 10 minutes and the supernatants diluted 1:20 in the incubation buffer provided. 100 μl of this solution were then assayed exactly according to the manufacturer's instructions supplied with the kit. OD405 nm were measured 20 minutes after addition of the final substrate in a SPECTRAmax Plus plate reader (molecular Devices). OD405 nm was plotted versus compound concentration and the IC50 values for the compounds were calculated using the curve-fitting program SOFTmax Pro (Molecular Devices) using the four parameter fit option.

[3] = target: T1, Caspase-9 (Homo sapiens, UniProt P55211); assay: Caspase-9 assay (fluorogenic substrate cleavage, kinact); format: biochemical; conditions: second order rate constant of inactivation; 0.00125 units/ml caspase-9, 50 μM AcDEVD-AMC, buffer with 8% glycerol
T1 construct: purchased Europa Bioproducts UBC2088
T1 sequence (P55211 1-315 limits assumed): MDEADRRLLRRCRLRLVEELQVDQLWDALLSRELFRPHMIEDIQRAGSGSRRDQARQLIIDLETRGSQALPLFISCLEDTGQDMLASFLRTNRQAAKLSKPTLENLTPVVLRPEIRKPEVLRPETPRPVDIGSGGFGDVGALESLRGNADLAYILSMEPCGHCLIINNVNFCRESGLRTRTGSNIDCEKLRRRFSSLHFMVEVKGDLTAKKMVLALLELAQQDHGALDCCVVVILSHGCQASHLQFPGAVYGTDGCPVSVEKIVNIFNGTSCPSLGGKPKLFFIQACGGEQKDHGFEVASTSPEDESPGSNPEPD
T1 sequence (P55211 331-416 limits assumed): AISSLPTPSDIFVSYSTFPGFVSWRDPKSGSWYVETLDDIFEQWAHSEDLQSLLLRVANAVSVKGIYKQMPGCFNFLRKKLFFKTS
Experimental: as §1, §2
Caspase-9 was purchased from Europa Bioproducts (order No UBC2088) and used with a concentration of 0.00125 units/ml (units defined by the manufacturer as amount of enzyme that cleaves 1 nmol of LEHD-pNA in 1 h at 37° C.). The assay was run as described for the caspase-8 assay except that the caspase-9 buffer additionally contained 8% glycerol (and the substrate concentration is 50 μM AcDEVD-AMC as opposed to 10 μM for caspase-8).

Chain of recombinant, purified human caspase-8 (Q14790 217-374 limits assumed): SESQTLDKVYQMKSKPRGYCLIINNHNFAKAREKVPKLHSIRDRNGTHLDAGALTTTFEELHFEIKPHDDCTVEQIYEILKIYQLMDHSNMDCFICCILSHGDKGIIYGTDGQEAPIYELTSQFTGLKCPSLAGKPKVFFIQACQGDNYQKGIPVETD
Chain of recombinant, purified human caspase-8 (Q14790 385-479 limits assumed): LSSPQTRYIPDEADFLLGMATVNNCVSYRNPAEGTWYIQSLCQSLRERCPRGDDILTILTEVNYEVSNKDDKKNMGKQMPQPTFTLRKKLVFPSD

| Structure (SMILES) | Kinact (1/M/s), Caspase-8 Activity [1] | IC50 [2] [nM] | Kinact (1/M/s), Caspase-9 Activity [3] |
| --- | --- | --- | --- |
| O=C(O)CC(NC(=O)c1ccccc1Cl)C(=O)CF (centres unmarked) [Example 4, 3-(2-Chlorobenzoylamino)-5-fluoro-4-oxo-pentanoic Acid] | C (kinact less than 40,000) | < 200 | – |
| O=C(O)CC(NC(=O)c1cccc2ccccc12)C(=O)CF (centres unmarked) [Example 22, 5-Fluoro-3-(naphthyl-1-carboxamido)-4-oxo-pentanoic acid] | B (kinact between 40,000 and 60,000) | < 200 | – |
| O=C(O)CC(NC(=O)c1cccc(F)c1)C(=O)CF (centres unmarked) [Example 10, 5-Fluoro-3-(3-fluorobenzoylamino)-4-oxo-pentanoic Acid] | B (kinact between 40,000 and 60,000) | < 200 | – |
| O=C(O)CC(NC(=O)c1cccc(-c2ccccc2)c1)C(=O)CF (centres unmarked) [Example 14, 3-(Biphenyl-3-carboxamido)-5-fluoro-4-oxo-pentanoic Acid] | – | – | B (kinact less than 60,000) |
| O=C(O)CC(NC(=O)c1ccsc1)C(=O)CF (centres unmarked) [Example 29, 5-Fluoro-4-oxo-3-(thienyl-3-carboxamido)-pentanoic Acid] | – | – | B (kinact less than 60,000) |
| O=C(O)CC(NC(=O)c1ccc(-c2ccccc2)o1)C(=O)CF (centres unmarked) [Example 34, 5-Fluoro-3-(5-phenyl-furyl-2-carboxamido)-4-oxo-pentanoic Acid] | A (kinact (1/M/s) greater than 60,000) | 200 to 1000 | – |
| O=C(O)CC(NC(=O)c1cc2ccccc2[nH]1)C(=O)CF (centres unmarked) [Example 31, 5-Fluoro-3-(1H-indolyl-2-carboxamido)-4-oxo-pentanoi c Acid] | C (kinact less than 40,000) | > 1000 | – |
| N#Cc1cccc(C(=O)NC(CC(=O)O)C(=O)CF)c1 (centres unmarked) [Example 19, 3-(3-Cyanobenzoylamino)-5-fluoro-4-oxo-pentanoic Acid] | B (kinact between 40,000 and 60,000) | 200 to 1000 | – |
| O=C(O)CC(NC(=O)c1ccc(C(F)(F)F)cc1)C(=O)CF (centres unmarked) [Example 13, 5-Fluoro-3-(4-trifluoromethylbenzoylamino)-4-oxo-pent anoic Acid] | C (kinact less than 40,000) | > 1000 | – |
| O=C(O)CC(NC(=O)c1ccc(Cl)c(Cl)c1)C(=O)CF (centres unmarked) [Example 7, 3-(3,4-Dichlorobenzoylamino)-5-fluoro-4-oxo-pentanoic Acid] | B (kinact between 40,000 and 60,000) | 200 to 1000 | – |

Continued, values first:

| Kinact (1/M/s), Caspase-8 Activity [1] | IC50 [2] [nM] | Kinact (1/M/s), Caspase-9 Activity [3] | Structure (SMILES) |
| --- | --- | --- | --- |
| C (kinact less than 40,000) | < 200 | – | O=C(O)CC(NC(=O)c1cccs1)C(=O)CF (centres unmarked) [Example 28, 5-Fluoro-4-oxo-3-(thienyl-2-carboxamido)-pentanoic Acid] |
| B (kinact between 40,000 and 60,000) | < 200 | – | O=C(O)CC(NC(=O)c1cccnc1)C(=O)CF (centres unmarked) [Example 25, 5-Fluoro-4-oxo-3-(pyridyl-3-carboxamido)-pentanoic Acid Trifluoroacetate Salt] |
| B (kinact between 40,000 and 60,000) | < 200 | – | COc1cccc(C(=O)NC(CC(=O)O)C(=O)CF)c1 (centres unmarked) [Example 16, 5-Fluoro-3-(3-methoxybenzoylamino)-4-oxo-pentanoic Acid] |
| A (kinact (1/M/s) greater than 60,000) | < 200 | – | O=C(O)CC(NC(=O)c1cccc(Oc2ccccc2)c1)C(=O)CF (centres unmarked) [Example 37, 5-Fluoro-4-oxo-3-(3-phenoxybenzoylamino)-pentanoic Acid] |
| A (kinact (1/M/s) greater than 60,000) | < 200 | A (kinact (1/M/s) greater than 60,000) | O=C(O)CC(NC(=O)c1ccccc1)C(=O)CF (centres unmarked) [Example 1, 3-Benzoylamino-5-fluoro-4-oxo-pentanoic Acid] |
